# Where two headings read alike, the source gives them in different places.
# What was measured:
# Myzus persicae [1] = assay: Myzus persicae - spray test; format: in vivo; conditions: application rate of 500 g/ha, after 6 days, sprayed Chinese cabbage leaf discs infested by all stages, 100% = all aphids killed; for pest or weed control at 500 g/ha: Myzus persicae, foliar, 144 h, read-out: efficacy in %
# Experimental: Myzus persicae—spray test Solvent: 78 parts by weight of acetone • • 1.5 parts by weight of dimethylformamide Emulsifier: 0.5 part by weight of alkylaryl polyglycol ether To produce an appropriate active ingredient formulation, 1 part by weight of active ingredient is mixed with the specified amounts of solvent and emulsifier, and the concentrate is diluted to the desired concentration with emulsifier-containing water. Discs of Chinese cabbage leaves (Brassica pekinensis) infested by all stages of the green peach aphid (Myzus persicae) are sprayed with an active ingredient formulation of the desired concentration. After 6 days, the efficacy in % is determined. 100% means that all the aphids have been killed; 0% means that no aphids have been killed.
# Myzus persicae [2] = assay: Myzus persicae - sachet test; format: in vivo; conditions: 100% = all animals killed; for pest or weed control at 6 ppm / pest or weed control at 30 ppm: Myzus persicae, read-out: efficacy (kill in %)
# Procedure, shortened: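 Active ingredient dissolved with 2% N-methylpyrrolidone and 2% diacetone alcohol, diluted in water, then pipetted into nutrient medium. Plate sealed and paired with a plate carrying green peach aphids. Kill in % scored after the set time (100% = all dead, 0% = none dead).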
# [3] = log P determination by LC-MS in the acidic range; format: physicochemical; conditions: for log P (acid): LC-MS in the acidic range
# Description: The LC-MS determination in the acidic range is effected at pH 2.7 using 0.1% aqueous formic acid and acetonitrile (contains 0.1% formic acid) as eluents, linear gradient from 10% acetonitrile to 95% acetonitrile. Alternatively, the determination is effected in the acidic range at pH 2.3 using 0.1% aqueous phosphoric acid and acetonitrile as eluents; linear gradient from 10% acetonitrile to 95% acetonitrile.
# [4] = application rate of 30 ppm in nutrient medium
# [5] = application rate of 6 ppm in nutrient medium
# [6] = pH 2.7, LC-MS in the acidic range, read-out: log P (acid)
# [7] = pH 2.7, values given in the synthesis examples and NMR lists, read-out: HPLC-MS: log P
Structure (SMILES),efficacy in % (Myzus persicae [1]),efficacy (kill in %) (Myzus persicae [2]; [4]),log P (acid) [3],efficacy (kill in %) (Myzus persicae [2]; [5]),pest or weed control at 500 g/ha (Myzus persicae [1]),pest or weed control at 6 ppm (Myzus persicae [2]; [5]),pest or weed control at 30 ppm (Myzus persicae [2]; [4]),"chromatographic logP [3, 6]","chromatographic logP [3, 7]",HPLC-MS: log P ([3]; values given in the synthesis examples and NMR lists)
COCn1nc(N(C)C(=O)c2cccnc2)cc1C [Compound I-1-178],100%,80%,0.7,–,–,–,–,–,–,–
COCCN(CCOC)C(=O)n1nc(NC(=O)c2cccnc2)cc1C [Compound I-1-169],100%,100%,1.91,100%,–,–,–,–,–,–
C#CCn1nc(NC(=O)c2cccnc2)cc1C [Compound I-1-19],100%,100%,0.93,100%,–,–,–,–,–,–
Cc1cc(NC(=O)c2cccnc2)nn1Cc1nccs1 [Compound I-1-14],80%,100%,1.05,100%,–,–,–,–,–,–
Cc1cc(C)nc(Cn2nc(NC(=O)c3cccnc3)cc2C)n1 [Compound I-1-36],90%,100%,1.2,100%,–,–,–,–,–,–
CC(C)=CCn1nc(NC(=O)c2cccnc2)cc1C [Compound I-1-239],90%,100%,1.75,100%,–,–,–,–,–,–
Cc1cc(N(CC#N)C(=O)c2cccnc2)nn1Cc1ncccn1 [Compound I-1-262],90%,100%,0.84,100%,–,–,–,–,–,–
CCC(C)NC(=O)n1nc(NC(=O)c2cccnc2)cc1C (stereo not shown) [Compound I-1-317],90%,100%,1.83,100%,–,–,–,–,–,–
Cc1cc(NC(=O)c2cccnc2)nn1CC1CC1 [Compound I-1-174],100%,100%,1.31,100%,–,–,–,–,–,–
Cc1cc(NC(=O)c2cccnc2)nn1C(C)C1CC1 (stereo not shown) [Compound I-1-218],100%,100%,1.63,100%,–,–,–,–,–,–
Cc1cc(NC(=O)c2cccnc2)nn1CCCl [Compound I-1-33],100%,100%,1.16,100%,–,–,–,–,–,–
Cc1cc(NC(=O)c2cccnc2)nn1Cn1nc(C2CC2)n(C2CC2)c1=O [Compound I-1-147],100%,100%,1.45,100%,–,–,–,–,–,–
Cc1cc(NC(=O)c2cccnc2)nn1C1CCCC1 [Compound I-1-229],90%,100%,1.74,100%,–,–,–,–,–,–
Cc1cc(NC(=O)c2cccnc2)nn1Cc1noc(C(C)(C)C)n1 [Compound I-1-285],90%,100%,1.71,100%,–,–,–,–,–,–
COCCn1nc(NC(=O)c2cccnc2)cc1C [Compound I-1-173],100%,80%,0.79,80%,–,–,–,–,–,–
Cc1cc(NC(=O)c2cccnc2)nn1Cc1ccc(Cl)s1 [Compound I-1-297],90%,100%,2.07,–,–,–,–,–,–,–

Structure (SMILES),efficacy in % (Myzus persicae [1]),efficacy (kill in %) (Myzus persicae [2]; [4]),log P (acid) [3],efficacy (kill in %) (Myzus persicae [2]; [5]),pest or weed control at 500 g/ha (Myzus persicae [1]),pest or weed control at 6 ppm (Myzus persicae [2]; [5]),pest or weed control at 30 ppm (Myzus persicae [2]; [4]),"chromatographic logP [3, 6]","chromatographic logP [3, 7]",HPLC-MS: log P ([3]; values given in the synthesis examples and NMR lists)
Cc1cc(NC(=O)c2cccnc2)nn1Cn1cccn1 [Compound I-1-225],100%,100%,0.94,100%,–,–,–,–,–,–
"Cc1cc(NC(=O)c2cccnc2)n[nH]1 [Compound I-1-17, N-(5-Methyl-1H-pyrazol-3-yl)nicotinamide]",–,–,–,–,90%,100%,100%,0.3,0.3,–
Cc1cc(NC(=O)c2cccnc2)nn1Cc1noc(C(=O)N(C)C)n1 [Compound I-1-286],100%,100%,1.03,100%,–,–,–,–,–,–
Cc1cc(NC(=O)c2cccnc2)nn1Cc1ccncc1 [Compound I-1-51],90%,100%,0.13,100%,–,–,–,–,–,–
"Cc1cc(NC(=O)c2cncc(F)c2)nn1Cc1ncccn1 [Compound I-1-7, 5-Fluoro-N-[5-methyl-1-(pyrimidin-2-ylmethyl)-1H-pyrazol-3-yl]nicotinamide]",–,–,–,–,90%,100%,100%,1.11,1.11,–
C#CCn1nc(NC(=O)c2cccnc2)cc1C1CC1 [Compound I-1-43],90%,100%,1.41,100%,–,–,–,–,–,–
O=C(Nc1nn(Cc2ncccn2)c2ccccc12)c1cncc(F)c1 [Compound I-1-216],90%,100%,1.54,100%,–,–,–,–,–,–
Cn1nc(NC(=O)c2cccnc2)c2cccnc21 [Compound I-1-39],90%,100%,0.78,100%,–,–,–,–,–,–
Cc1cc(N(C(=O)c2ccc(Cl)cc2)C(=O)c2cccnc2)nn1C(=O)c1ccc(Cl)cc1 [Compound I-1-42],90%,100%,4.18,80%,–,–,–,–,–,–
Cc1cc(NC(=O)c2cccnc2)nn1Cc1cn2cc(C(F)(F)F)ccc2n1 [Compound I-1-155],90%,100%,1.54,100%,–,–,–,–,–,–
Cc1cc(NC(=O)c2cccnc2)nn1C(=O)NCCOC(F)(F)F [Compound I-1-172],90%,100%,1.91,100%,–,–,–,–,–,–
Cc1cc(NC(=O)c2cccnc2)nn1CCC(F)(F)F [Compound I-1-188],90%,100%,1.45,100%,–,–,–,–,–,–
Cc1cc(NC(=O)c2cccnc2)nn1Cc1nn(C)c(=O)n1C [Compound I-1-153],100%,100%,0.62,100%,–,–,–,–,–,–
CCOC(=O)CN(C)C(=O)Cn1nc(NC(=O)c2cncc(F)c2)cc1C [Compound I-1-61],80%,100%,1.35,–,–,–,–,–,–,"Compound No. I-1-61: HPLC-MS: logP = 1.35; mass (m/z): 378.1 (M + H)^+; 1H NMR (CD3CN) 1.21-1.28 (m,"
Cc1cc(NC(=O)c2cccnc2)nn1C(=O)NCC1COC(C)(C)O1 (stereo not shown) [Compound I-1-164],90%,100%,1.56,100%,–,–,–,–,–,–

# Reference: patent publication US20160106102A1, “KNOWN AND NEW HETEROCYCLIC COMPOUNDS AS PEST CONTROL AGENTS” (BAYER CROPSCIENCE AKTIENGESELLSCHAFT, priority 2013, published 2016)
